In brackets after ≈: the same amount, converted by molar mass. Where two headings read alike, the source gives them in different places.
What was measured:
[1] = test system: A. baumannii 8C6 (GES-14); test: MIC broth microdilution, A. baumannii; type: cell-based; conditions: Acinetobacter baumannii; read-out: MIC A. baumannii 8C6 (GES-14)
Protocol: (§1) Antimicrobial testing was carried out by the broth microdilution method in 96-well plate format following the Clinical and Laboratory Standards Institute (CLSI) guidelines and European Committee on Antimicrobial Susceptibility Testing (EUCAST) recommendations. Bacterial suspension of specific bacterial strain equivalent to 0.5 McFarland turbidity standard was diluted with cation-adjusted Mueller Hinton broth with TES (Thermo Fisher Diagnostic, Landsmeer, The Netherlands), to obtain a final inoculum of 10^5 CFU/mL. Compounds dissolved in DMSO and inoculum were mixed together and incubated for 18–20 h at 35 °C. Suspensions of Mycobacterium sp. were prepared into a tube of Middelbrook 7H9 broth supplemented with 5% OADC (Thermo Scientific, Trek Diagnostic Systems, West Sussex, UK) and incubated for at least 10 days. After incubation the minimal inhibitory concentration (MIC) values were determined by visual inspection as the lowest dilution of compounds showing no turbidity. Tetracycline was used as a positive control on every assay plate.

Human topoisomerase IIα = molecular target: T1, Human topoisomerase IIα (Homo sapiens, UniProt P11388); test: Human topoisomerase II Alpha Relaxation High Throughput Plate assay; type: biochemical; conditions: 0.5 h; residual activity of the enzyme at compound concentration 10 μM, mean ± SD; read-out: Human Topo II (% RA)
T1 construct: purchased Inspiralis (Norwich, UK)
Protocol: A Human topoisomerase II Alpha Relaxation High Throughput Plate assay kit, purchased from Inspiralis (Norwich, UK) was used to evaluate the selectivity of compounds for the bacterial enzymes over the homologous human topoisomerase II. […] Biotinylated oligonucleotide in wash buffer was immobilized onto the wells and the excess oligonucleotide was washed off with wash buffer. […] The reactions were stopped by adding the TF buffer (50 mM NaOAc (pH 4.7), 50 mM NaCl, and 50 mM MgCl2) to allow the triplex formation (biotin-oligonucleotide-plasmid) for additional 30 min. Afterward, the unbound plasmid was washed off using TF buffer, and the solution of Promega Diamond dye in T10 buffer (10 mM Tris-HCl (pH 8.0), 1 mM EDTA) was added. […] Screening was performed at inhibitor concentrations of 10 μM. Raw data were converted to mean ± SD percentage of residual activity of the enzyme obtained by two independent measurements.

HUVEC = test: Metabolic activity assessment (cytotoxicity), HUVEC; type: cell-based; conditions: Homo sapiens, metabolic activity after 72 h treatment
Protocol: Cells of the HepG2 line (ATCC® HB-8065™) and HUVEC (ATCC® CRL-1730™) were cultured in Dulbecco’s Modified Eagle Medium (DMEM; Sigma-Aldrich, St. Louis, MO, USA) supplemented with 10% heat-deactivated FBS (Gibco, Grand Island, NE, USA), 2 mM L-glutamine, 100 U/mL penicillin, 100 μg/mL streptomycin (all from Sigma-Aldrich, St. Louis, MO, USA) in a humidified chamber at 37 °C and 5% CO2. The experiments were carried out on passages 7–9 for both cell lines. The tested compounds were dissolved in DMSO and further diluted in culture medium to a desired final concentration. Cells were seeded into 96-well plates at 8 × 10^4 cells/mL (100 μL/well) and incubated for 24 h to attach onto the wells. Cells were treated with 1 μM and 50 μM of each compound of interest or corresponding vehicle as control. […] The metabolic activity was assessed after 72 h treatment using the CellTiter 96 Aqueous One Solution Cell Proliferation Assay (Promega, Madison, WI, USA), in accordance with the manufacturer’s instructions. The absorbance was measured at 492 nm on an automated microplate reader BioTek Synergy HT (BioTek Instruments, Inc., Winooski, VT, USA). Data are presented as the percentage of metabolic activity of control cells stimulated with vehicle or as IC50 value (mean ± SD) from two independent experiments, each conducted in duplicate or triplicate. IC50 values were calculated by a non-linear regression model using Graph Pad Prism 7 software.

MRSA (QA-11.7) = test: MIC broth microdilution, MRSA QA-11.7; type: cell-based, methicillin-resistant S. aureus; conditions: Staphylococcus aureus, 20 h, read-out: MIC MRSA (QA-11.7)
Protocol: as §1

S. aureus (ATCC 29213) = test: MIC broth microdilution, S. aureus ATCC 29213; type: cell-based; conditions: Staphylococcus aureus, ATCC29213
Protocol: as §1

S. pneumoniae (QA-10/02) = test: MIC broth microdilution, S. pneumoniae; type: cell-based; conditions: Streptococcus pneumoniae
Protocol: as §1

[2] = test system: S. alachua RDK 030c (QA-1482/04); test: MIC broth microdilution, S. alachua; type: cell-based; conditions: Salmonella; read-out: MIC S. alachua RDK 030c (QA-1482/04)
Protocol: as §1

E. coli (QA-11.8) = test: MIC broth microdilution, E. coli QA-11.8; type: cell-based; conditions: Escherichia coli, 20 h; read-out: MIC E. coli (QA-11.8)
Protocol: as §1

[3] = test system: E. faecalis DRK 057 (ATCC 29212); test: MIC broth microdilution, E. faecalis; type: cell-based; conditions: Enterococcus faecalis, ATCC29212; read-out: MIC E. faecalis DRK 057 (ATCC 29212)
Protocol: as §1

E. coli (ATCC 25922) = test: MIC broth microdilution, E. coli ATCC 25922; type: cell-based; conditions: Escherichia coli, ATCC25922
Procedure, shortened: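 MIC taken by eye as the lowest compound dilution with no turbidity. Inoculum 10^5 CFU/mL (final) in cation-adjusted MH broth with TES; 18–20 h, 35 °C. Mycobacteria were grown in Middelbrook 7H9 with 5% OADC for at least 10 days. Tetracycline control on each plate.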

E. coli (QA-11.3) = test: MIC broth microdilution, E. coli QA-11.3; type: cell-based; conditions: Escherichia coli, 20 h; read-out: MIC E. coli (QA-11.3)
Protocol: as §1

MRSA (QA-11.2) = test: MIC broth microdilution, MRSA QA-11.2; type: cell-based, methicillin-resistant S. aureus; conditions: Staphylococcus aureus, 20 h, resistant to cefoxitin, chloramphenicol, clindamycin, linezolid, tetracycline, thiamulin, trimethoprim, read-out: MIC MRSA (QA-11.2)
Protocol: as §1

MRSA = test: MIC broth microdilution, MRSA; type: cell-based, methicillin-resistant S. aureus; conditions: Staphylococcus aureus, read-out: MIC MRSA
Protocol: as §1

M. avium = test: MIC, M. avium; type: cell-based; conditions: Mycobacterium avium; read-out: MIC M. avium
Protocol: as §1

MRSA (QA-11.4) = test: MIC broth microdilution, MRSA QA-11.4; type: cell-based, methicillin-resistant S. aureus; conditions: Staphylococcus aureus, 20 h, resistant to cefoxitin, read-out: MIC MRSA (QA-11.4)
Protocol: as §1

[4] = test system: S. agalactiae RDK 047 (QA-990/02); test: MIC broth microdilution, S. agalactiae; type: cell-based; conditions: Streptococcus agalactiae; read-out: MIC S. agalactiae RDK 047 (QA-990/02)
Protocol: as §1

[5] = test system: P. aeruginosa RDK 184 (DSM 939); test: MIC broth microdilution, P. aeruginosa; type: cell-based; conditions: Pseudomonas aeruginosa, DSM939; read-out: MIC P. aeruginosa RDK 184 (DSM 939)
Protocol: as §1

[6] = S. aureus ATCC 29213, read-out: S. aureus MIC (converted)
[7] = read-out: MIC S. aureus (ATCC 29213)
[8] = E. coli ATCC 25922, read-out: E. coli MIC (converted)
[9] = read-out: MIC E. coli (ATCC 25922)

T1 sequence (P11388 whole entry): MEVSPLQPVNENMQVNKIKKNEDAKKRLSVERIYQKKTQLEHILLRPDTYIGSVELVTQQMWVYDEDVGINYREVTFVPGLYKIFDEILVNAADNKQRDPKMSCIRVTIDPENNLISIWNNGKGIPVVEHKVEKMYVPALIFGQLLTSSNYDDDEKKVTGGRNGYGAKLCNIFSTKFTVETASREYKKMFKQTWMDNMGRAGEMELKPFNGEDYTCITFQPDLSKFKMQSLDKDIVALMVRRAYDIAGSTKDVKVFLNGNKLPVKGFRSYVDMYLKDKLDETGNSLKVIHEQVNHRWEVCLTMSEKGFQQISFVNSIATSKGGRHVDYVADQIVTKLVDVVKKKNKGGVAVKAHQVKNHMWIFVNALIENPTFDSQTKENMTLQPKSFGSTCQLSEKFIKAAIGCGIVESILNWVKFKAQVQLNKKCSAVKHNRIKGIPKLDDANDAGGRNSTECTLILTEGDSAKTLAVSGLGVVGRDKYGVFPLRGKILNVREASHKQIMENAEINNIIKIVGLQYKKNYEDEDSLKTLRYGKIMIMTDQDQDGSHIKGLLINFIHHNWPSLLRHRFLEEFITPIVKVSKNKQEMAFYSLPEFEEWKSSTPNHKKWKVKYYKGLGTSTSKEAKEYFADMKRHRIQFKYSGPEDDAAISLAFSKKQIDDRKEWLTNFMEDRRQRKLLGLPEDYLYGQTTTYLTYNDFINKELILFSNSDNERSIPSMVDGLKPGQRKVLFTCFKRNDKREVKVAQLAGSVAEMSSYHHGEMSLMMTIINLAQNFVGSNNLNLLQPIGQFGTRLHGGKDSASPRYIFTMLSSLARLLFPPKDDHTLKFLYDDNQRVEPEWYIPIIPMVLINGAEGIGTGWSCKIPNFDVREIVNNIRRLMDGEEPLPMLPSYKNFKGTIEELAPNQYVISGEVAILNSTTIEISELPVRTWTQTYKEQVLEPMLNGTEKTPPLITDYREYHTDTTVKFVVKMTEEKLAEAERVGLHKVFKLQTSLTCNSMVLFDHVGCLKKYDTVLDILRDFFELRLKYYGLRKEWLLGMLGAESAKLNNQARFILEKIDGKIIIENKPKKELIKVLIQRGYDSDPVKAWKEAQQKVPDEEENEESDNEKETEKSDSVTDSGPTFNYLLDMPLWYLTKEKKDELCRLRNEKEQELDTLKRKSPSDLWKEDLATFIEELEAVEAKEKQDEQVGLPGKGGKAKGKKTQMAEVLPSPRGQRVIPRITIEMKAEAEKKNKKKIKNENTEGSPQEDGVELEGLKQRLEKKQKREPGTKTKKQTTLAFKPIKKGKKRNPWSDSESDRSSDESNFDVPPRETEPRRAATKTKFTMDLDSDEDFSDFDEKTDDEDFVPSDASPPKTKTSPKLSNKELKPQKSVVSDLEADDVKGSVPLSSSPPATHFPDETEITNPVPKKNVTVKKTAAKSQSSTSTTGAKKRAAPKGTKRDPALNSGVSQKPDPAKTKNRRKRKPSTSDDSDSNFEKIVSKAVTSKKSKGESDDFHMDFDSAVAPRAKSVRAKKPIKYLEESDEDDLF

Row | Structure (SMILES) | MIC [1] | remaining activity at 10 µM (Human topoisomerase IIα) | IC50 (HUVEC; 72 h) | MIC (MRSA (QA-11.7)) | MIC (S. aureus (ATCC 29213); [6]) | MIC (S. aureus (ATCC 29213); [7]) | MIC (S. pneumoniae (QA-10/02)) | MIC [2] | MIC (E. coli (QA-11.8)) | MIC [3] | MIC (E. coli (ATCC 25922); [8]) | MIC (E. coli (ATCC 25922); [9]) | MIC (E. coli (QA-11.3)) | MIC (MRSA (QA-11.2)) | MIC (MRSA) | MIC (M. avium) | MIC (MRSA (QA-11.4)) | MIC [4] | MIC [5] | IC50 (HUVEC)
1 | COc1ccc2nccc(CCN3CCC(NCc4ccc(OC(F)F)c(O)c4)CC3)c2n1 [Compound 20, 2-(Difluoromethoxy)-5-((1-(2-(6-methoxy-1,5-naphthyridin-4-yl)ethyl)piperidin-4-ylamino)methyl)phenol] | 4 µg/mL (≈ 8.72 µM) | 94.8% | 29.8 ± 1.13 µM | 0.5 µg/mL (≈ 1.09 µM) | 1.09 µM | 0.5 µg/mL | 1 µg/mL (≈ 2.18 µM) | 64 µg/mL (≈ 140 µM) | 4 µg/mL (≈ 8.72 µM) | 4 µg/mL (≈ 8.72 µM) | 17.4 µM | 8 µg/mL | 1 µg/mL (≈ 2.18 µM) | 1 µg/mL (≈ 2.18 µM) | 1 µg/mL (≈ 2.18 µM) | 128 µg/mL (≈ 279 µM) | 2 µg/mL (≈ 4.36 µM) | 2 µg/mL (≈ 4.36 µM) | > 128 µg/mL | 
2 | COc1ccc2nccc(CCN3CCC(NCc4ccc(C(F)(F)F)nc4)CC3)c2n1 [Compound 21, 1-(2-(6-Methoxy-1,5-naphthyridin-4-yl)ethyl)-N-((6-(trifluoromethyl)pyridin-3-yl)methyl)piperidin-4-amine] | 16 µg/mL (≈ 35.9 µM) | 95.5 ± 2.39% |  | 1 µg/mL (≈ 2.24 µM) | 0.56 µM | 0.25 µg/mL | 1 µg/mL (≈ 2.24 µM) | 128 µg/mL (≈ 287 µM) | 8 µg/mL (≈ 18 µM) | 2 µg/mL (≈ 4.49 µM) | 71.8 µM | 32 µg/mL | 8 µg/mL (≈ 18 µM) | 0.5 µg/mL (≈ 1.12 µM) | 0.5 µg/mL (≈ 1.12 µM) | 4 µg/mL (≈ 8.98 µM) | 1 µg/mL (≈ 2.24 µM) | 4 µg/mL (≈ 8.98 µM) | > 128 µg/mL | > 50 µM
3 | COc1ccc(CNC2CCN(CCc3ccnc4ccc(OC)nc34)CC2)cn1 [Compound 22, 1-(2-(6-Methoxy-1,5-naphthyridin-4-yl)ethyl)-N-((6-methoxypyridin-3-yl)methyl)piperidin-4-amine] | 4 µg/mL (≈ 9.82 µM) | 97 ± 6.94% |  | 1 µg/mL (≈ 2.45 µM) | 1.19 µM | 0.5 µg/mL | 1 µg/mL (≈ 2.45 µM) | 64 µg/mL (≈ 157 µM) | 8 µg/mL (≈ 19.6 µM) | 2 µg/mL (≈ 4.91 µM) | 38.1 µM | 16 µg/mL | 4 µg/mL (≈ 9.82 µM) | 2 µg/mL (≈ 4.91 µM) | 1 µg/mL (≈ 2.45 µM) | > 128 µg/mL | 2 µg/mL (≈ 4.91 µM) | 1 µg/mL (≈ 2.45 µM) | > 128 µg/mL | > 50 µM
